From US12421225B2, “Heteroaromatic amide derivative and medicament containing the same” (KAKEN PHARMACEUTICAL CO., LTD., priority 2018, dated 2025)

Assays:
human Nav1.7 = human Nav1.7 (Homo sapiens (Human), UniProt Q15858); test: Human Nav1.7 inhibitory activity evaluation (automated patch clamp QPatch16X, HEK293A cells stably expressing human Nav1.7 and human Navβ1); format: cell-based; conditions: human Nav1.7, automated patch clamp
How it was run: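 IC50 calculated from the concentration-response of inward current evoked by the second −10 mV, 50 ms depolarisation, which follows a 15 s conditioning step at roughly 30-40% inactivation and a 100 ms −120 mV interval. Cells: HEK293A expressing human Nav1.7/Navβ1, automated patch clamp, room temperature, 0.1% DMSO final.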

human Nav1.5 = human Nav1.5 (Homo sapiens (Human), UniProt Q14524); test: Human Nav1.5 inhibitory activity evaluation (automated patch clamp QPatch16X, HEK293 cells stably expressing human Nav1.5); format: cell-based; conditions: human Nav1.5, automated patch clamp
How it was run: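 IC50 derived from concentration-response of inward current at the 20th of 20 action-potential-mimicking pulses (holding −80 mV, leak corrected with −100 mV step). HEK293 cells stably expressing human Nav1.5, room temperature, extracellular pH 7.4, intracellular CsF-based pH 7.3, 0.1% DMSO.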

Chain of human Nav1.5 (Q14524 whole entry): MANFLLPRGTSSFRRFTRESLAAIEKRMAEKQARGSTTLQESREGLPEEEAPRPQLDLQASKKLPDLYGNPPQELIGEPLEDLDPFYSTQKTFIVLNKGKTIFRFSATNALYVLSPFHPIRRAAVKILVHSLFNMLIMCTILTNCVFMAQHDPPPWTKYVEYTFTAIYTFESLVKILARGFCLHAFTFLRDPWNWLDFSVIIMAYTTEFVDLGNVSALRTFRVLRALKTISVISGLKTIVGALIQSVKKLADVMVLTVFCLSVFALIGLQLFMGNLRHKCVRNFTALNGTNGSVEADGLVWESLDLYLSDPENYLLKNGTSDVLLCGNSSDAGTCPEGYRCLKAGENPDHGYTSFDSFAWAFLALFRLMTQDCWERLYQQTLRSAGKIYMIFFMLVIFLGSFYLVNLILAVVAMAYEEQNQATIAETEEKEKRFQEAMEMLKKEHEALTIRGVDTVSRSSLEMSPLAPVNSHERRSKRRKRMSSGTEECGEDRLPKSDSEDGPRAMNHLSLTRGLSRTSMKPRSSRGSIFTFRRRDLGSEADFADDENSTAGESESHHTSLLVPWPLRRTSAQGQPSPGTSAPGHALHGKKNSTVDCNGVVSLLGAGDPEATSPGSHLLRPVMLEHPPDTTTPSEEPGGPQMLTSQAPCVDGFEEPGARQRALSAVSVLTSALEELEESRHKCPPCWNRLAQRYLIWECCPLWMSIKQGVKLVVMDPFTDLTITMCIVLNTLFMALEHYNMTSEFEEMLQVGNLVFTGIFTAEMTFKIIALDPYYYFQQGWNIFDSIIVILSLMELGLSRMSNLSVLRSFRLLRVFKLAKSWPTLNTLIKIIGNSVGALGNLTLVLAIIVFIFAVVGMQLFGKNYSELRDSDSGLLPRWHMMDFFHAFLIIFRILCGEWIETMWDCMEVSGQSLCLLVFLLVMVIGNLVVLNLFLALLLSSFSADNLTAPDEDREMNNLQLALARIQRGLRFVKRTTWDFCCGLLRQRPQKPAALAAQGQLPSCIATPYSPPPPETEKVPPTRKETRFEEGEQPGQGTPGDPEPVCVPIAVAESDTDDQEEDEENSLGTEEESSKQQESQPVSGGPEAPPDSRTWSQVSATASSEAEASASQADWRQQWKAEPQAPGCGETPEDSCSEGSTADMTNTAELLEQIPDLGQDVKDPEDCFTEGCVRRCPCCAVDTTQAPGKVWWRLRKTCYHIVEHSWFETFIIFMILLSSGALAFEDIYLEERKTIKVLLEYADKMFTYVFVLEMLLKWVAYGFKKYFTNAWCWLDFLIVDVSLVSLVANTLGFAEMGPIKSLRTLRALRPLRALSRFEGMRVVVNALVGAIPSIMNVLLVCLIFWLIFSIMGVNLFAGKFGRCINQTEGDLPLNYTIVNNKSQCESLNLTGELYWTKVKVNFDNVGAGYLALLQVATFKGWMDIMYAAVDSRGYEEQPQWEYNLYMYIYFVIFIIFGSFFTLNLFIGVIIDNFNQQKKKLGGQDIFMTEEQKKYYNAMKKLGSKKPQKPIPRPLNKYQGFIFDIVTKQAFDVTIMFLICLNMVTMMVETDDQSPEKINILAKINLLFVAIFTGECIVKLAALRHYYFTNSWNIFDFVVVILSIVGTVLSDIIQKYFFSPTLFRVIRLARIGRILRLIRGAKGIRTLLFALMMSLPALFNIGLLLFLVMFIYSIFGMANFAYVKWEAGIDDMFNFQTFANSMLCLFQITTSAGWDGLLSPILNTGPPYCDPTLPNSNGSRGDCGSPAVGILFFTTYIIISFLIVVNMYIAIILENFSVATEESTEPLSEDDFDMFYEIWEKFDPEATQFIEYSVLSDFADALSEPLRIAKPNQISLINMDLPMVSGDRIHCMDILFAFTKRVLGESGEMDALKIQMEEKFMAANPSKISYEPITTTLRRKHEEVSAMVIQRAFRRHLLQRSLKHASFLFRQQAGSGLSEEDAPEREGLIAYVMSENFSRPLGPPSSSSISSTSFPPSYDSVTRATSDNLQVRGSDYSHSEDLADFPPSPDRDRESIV
Chain of human Nav1.7 (Q15858 whole entry): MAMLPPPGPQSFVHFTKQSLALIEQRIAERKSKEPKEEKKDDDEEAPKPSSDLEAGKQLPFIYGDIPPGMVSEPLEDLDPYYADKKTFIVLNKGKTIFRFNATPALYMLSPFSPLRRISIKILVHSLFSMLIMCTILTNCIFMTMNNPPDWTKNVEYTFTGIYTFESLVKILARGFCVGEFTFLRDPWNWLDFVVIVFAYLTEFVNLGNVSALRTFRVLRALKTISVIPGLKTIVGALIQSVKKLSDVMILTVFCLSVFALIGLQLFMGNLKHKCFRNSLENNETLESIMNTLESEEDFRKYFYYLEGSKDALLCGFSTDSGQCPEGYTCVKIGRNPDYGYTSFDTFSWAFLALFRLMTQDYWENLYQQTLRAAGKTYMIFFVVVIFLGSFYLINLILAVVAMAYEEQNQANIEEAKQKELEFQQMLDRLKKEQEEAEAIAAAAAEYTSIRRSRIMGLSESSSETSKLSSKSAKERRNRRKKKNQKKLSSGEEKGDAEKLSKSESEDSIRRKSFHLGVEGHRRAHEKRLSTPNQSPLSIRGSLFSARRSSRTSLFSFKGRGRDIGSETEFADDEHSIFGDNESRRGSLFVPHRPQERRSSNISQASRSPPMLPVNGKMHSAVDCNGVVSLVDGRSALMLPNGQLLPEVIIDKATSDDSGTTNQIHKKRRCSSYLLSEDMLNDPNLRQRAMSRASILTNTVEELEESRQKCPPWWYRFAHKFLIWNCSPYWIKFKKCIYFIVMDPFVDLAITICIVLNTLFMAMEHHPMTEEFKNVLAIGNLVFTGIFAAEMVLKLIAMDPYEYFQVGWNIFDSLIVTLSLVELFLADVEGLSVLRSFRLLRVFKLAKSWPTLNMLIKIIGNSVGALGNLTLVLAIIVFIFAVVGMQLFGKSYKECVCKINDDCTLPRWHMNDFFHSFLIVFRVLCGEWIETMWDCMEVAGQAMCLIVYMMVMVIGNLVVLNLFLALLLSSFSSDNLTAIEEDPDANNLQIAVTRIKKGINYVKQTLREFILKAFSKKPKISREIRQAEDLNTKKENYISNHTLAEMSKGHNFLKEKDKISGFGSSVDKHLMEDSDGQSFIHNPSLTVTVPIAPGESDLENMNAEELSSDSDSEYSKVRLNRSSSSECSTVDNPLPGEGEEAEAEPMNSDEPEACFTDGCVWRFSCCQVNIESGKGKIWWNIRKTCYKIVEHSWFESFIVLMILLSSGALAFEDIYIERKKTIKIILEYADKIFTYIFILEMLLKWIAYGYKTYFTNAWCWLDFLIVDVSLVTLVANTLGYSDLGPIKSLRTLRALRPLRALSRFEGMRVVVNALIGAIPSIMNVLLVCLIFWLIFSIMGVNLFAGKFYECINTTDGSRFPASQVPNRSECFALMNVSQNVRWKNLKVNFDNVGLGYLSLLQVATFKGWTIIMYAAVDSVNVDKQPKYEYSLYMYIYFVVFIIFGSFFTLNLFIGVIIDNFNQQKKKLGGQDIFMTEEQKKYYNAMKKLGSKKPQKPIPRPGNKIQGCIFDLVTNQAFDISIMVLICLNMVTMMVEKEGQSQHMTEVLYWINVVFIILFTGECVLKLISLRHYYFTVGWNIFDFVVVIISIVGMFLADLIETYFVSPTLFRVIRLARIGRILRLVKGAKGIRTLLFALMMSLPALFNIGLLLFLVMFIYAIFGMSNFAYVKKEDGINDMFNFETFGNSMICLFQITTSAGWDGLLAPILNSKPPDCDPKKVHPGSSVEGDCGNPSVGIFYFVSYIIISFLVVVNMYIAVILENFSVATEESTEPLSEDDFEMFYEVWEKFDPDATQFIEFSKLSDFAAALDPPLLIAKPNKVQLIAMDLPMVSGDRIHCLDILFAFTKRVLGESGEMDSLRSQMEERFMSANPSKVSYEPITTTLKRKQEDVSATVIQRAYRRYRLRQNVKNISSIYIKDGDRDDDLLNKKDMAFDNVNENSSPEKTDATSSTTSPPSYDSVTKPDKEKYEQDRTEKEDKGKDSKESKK
Chain of human Nav1.7 (Q07699 19-218 partner): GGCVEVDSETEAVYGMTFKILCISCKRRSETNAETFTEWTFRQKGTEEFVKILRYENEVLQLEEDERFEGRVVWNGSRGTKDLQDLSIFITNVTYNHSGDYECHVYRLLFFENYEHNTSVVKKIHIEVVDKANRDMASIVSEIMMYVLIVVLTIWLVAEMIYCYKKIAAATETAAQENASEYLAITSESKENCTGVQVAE

| IC50 (human Nav1.7) [nM] | Structure (SMILES) | IC50 (human Nav1.5) [nM] |
| --- | --- | --- |
| < 1000 | O=C(NC1COc2ccc(F)cc2C1)c1cc2n(n1)CCC(c1ccccc1)O2 (centres unmarked) [Example 352] | ≥ 3000 |
| < 10000 | O=C(N[C@H]1COc2ccc(Cl)cc2C1)c1cc2n(n1)CCC(c1cccnc1)O2 (some centres unmarked) [Example 358] | ≥ 3000 |
| < 1000 | N#Cc1ccc2c(c1)C[C@@H](NC(=O)c1cc3n(n1)CCC(c1ccccc1F)O3)CO2 (some centres unmarked) [Example 359] | ≥ 3000 |
| < 1000 | COCc1ccc2c(c1)C[C@@H](NC(=O)c1cc3n(n1)CCC(c1ccccc1F)O3)CO2 (some centres unmarked) [Example 361] | ≥ 3000 |
| < 1000 | N#Cc1ccc2c(c1)C[C@@H](NC(=O)c1cc3n(n1)CCC(c1ccc(F)cc1)O3)CO2 (some centres unmarked) [Example 364] | 1000 to 3000 |
| < 10000 | N#Cc1ccc2c(c1)C[C@@H](NC(=O)c1cc3n(n1)CCC(C(F)(F)F)O3)CO2 (some centres unmarked) [Example 373] | ≥ 3000 |
| < 1000 | N#Cc1ccc2c(c1)C[C@@H](NC(=O)c1cc3n(n1)CCC(C(F)(F)F)O3)CO2 (some centres unmarked) [Example 374] | ≥ 3000 |
| < 1000 | O=C(N[C@H]1COc2ccc(-c3cccnc3)cc2C1)c1cc2n(n1)CCC(C(F)(F)F)O2 (some centres unmarked) [Example 375] | ≥ 3000 |
| < 10000 | COc1ccc(-c2ccc3c(c2)C[C@@H](NC(=O)c2cc4n(n2)CCC(C(F)(F)F)O4)CO3)cn1 (some centres unmarked) [Example 378] | ≥ 3000 |
| < 10000 | O=C(N[C@H]1COc2ccc(-c3ccccn3)cc2C1)c1cc2n(n1)CCC(C(F)(F)F)O2 (some centres unmarked) [Example 382] | ≥ 3000 |
| < 1000 | CC1(C)CCn2nc(C(=O)N[C@H]3COc4ccc(-c5ccccn5)cc4C3)cc2O1 [Example 383] | ≥ 3000 |
| < 1000 | CCCC1CCn2nc(C(=O)N[C@H]3COc4ccc(Cl)cc4C3)cc2O1 (some centres unmarked) [Example 389] | 1000 to 3000 |
| < 1000 | O=C(N[C@H]1COc2ccc(COCC3CC3)cc2C1)c1cc2n(n1)CCC(C(F)(F)F)O2 (some centres unmarked) [Example 391] | ≥ 3000 |
| < 1000 | O=C(N[C@H]1COc2ccc(COc3ccccn3)cc2C1)c1cc2n(n1)CCC(C(F)(F)F)O2 (some centres unmarked) [Example 392] | 1000 to 3000 |
| < 10000 | O=C(N[C@H]1COc2ccc(CCN3CC(F)(F)C3)cc2C1)c1cc2n(n1)CCC(C(F)(F)F)O2 (some centres unmarked) [Example 401] | ≥ 3000 |
| < 1000 | O=C(N[C@H]1COc2ccc(C(F)(F)F)cc2C1)c1cc2n(n1)CCC(C#CC1CC1)O2 (some centres unmarked) [Example 402] | ≥ 3000 |
| < 1000 | N#Cc1ccc2c(c1)C[C@@H](NC(=O)c1cc3n(n1)CCC(COc1ccccn1)O3)CO2 (some centres unmarked) [Example 411] | ≥ 3000 |
| < 1000 | N#Cc1ccc2c(c1)C[C@@H](NC(=O)c1cc3n(n1)CCC(COCC(F)(F)C(F)(F)F)O3)CO2 (some centres unmarked) [Example 412] | 1000 to 3000 |
| < 10000 | N#Cc1ccc2c(c1)C[C@@H](NC(=O)c1cc3n(n1)CCC(CSCC(F)(F)F)O3)CO2 (some centres unmarked) [Example 422] | ≥ 3000 |
| < 1000 | O=C(N[C@H]1COc2ccc(-c3cnccn3)cc2C1)c1cc2n(n1)CCC(COCC1CC1)O2 (some centres unmarked) [Example 425] | ≥ 3000 |
| < 10000 | Cn1ccc(-c2ccc3c(c2)C[C@@H](NC(=O)c2cc4n(n2)CCC(COCC2CC2)O4)CO3)n1 (some centres unmarked) [Example 426] | ≥ 3000 |
| < 1000 | O=C(N[C@H]1COc2ccc(-c3cscn3)cc2C1)c1cc2n(n1)CCC(COCC1CC1)O2 (some centres unmarked) [Example 427] | 1000 to 3000 |
| < 1000 | O=C(N[C@H]1COc2ccc(-c3cncs3)cc2C1)c1cc2n(n1)CCC(COCC1CC1)O2 (some centres unmarked) [Example 428] | ≥ 3000 |
| < 10000 | Cn1ncc(-c2ccc3c(c2)C[C@@H](NC(=O)c2cc4n(n2)CCC(COCC2CC2)O4)CO3)n1 (some centres unmarked) [Example 429] | ≥ 3000 |
| < 1000 | O=C(N[C@H]1COc2ccc(C(F)(F)F)cc2C1)c1cc2n(n1)CCC(COCC(F)(F)F)O2 (some centres unmarked) [Example 432] | 1000 to 3000 |
| < 1000 | O=C(N[C@H]1COc2ccc(CC(F)F)cc2C1)c1cc2n(n1)CCC(COC1CCC1)O2 (some centres unmarked) [Example 437] | 1000 to 3000 |
| < 10000 | N#Cc1ccc2c(c1)C[C@@H](NC(=O)c1cc3n(n1)CC(COc1ccccn1)O3)CO2 (some centres unmarked) [Example 450] | ≥ 3000 |
| < 1000 | O=C(N[C@H]1COc2ccc(Cl)cc2C1)c1cc2n(n1)CC(CCn1cccn1)O2 (some centres unmarked) [Example 451] | 1000 to 3000 |
| < 10000 | N#Cc1ccc2c(c1)C[C@@H](NC(=O)c1cc3n(n1)CC(COCC1CC1)O3)CO2 (some centres unmarked) [Example 454] | ≥ 3000 |
| < 1000 | O=C(N[C@H]1COc2ccc(-c3cnccn3)cc2C1)c1cc2n(n1)CC(CCOCC(F)(F)F)O2 (some centres unmarked) [Example 456] | 1000 to 3000 |

The next lines start with the molecule.

| Structure (SMILES) | IC50 (human Nav1.7) [nM] | IC50 (human Nav1.5) [nM] |
| --- | --- | --- |
| COc1ncc(C(F)(F)F)cc1C1CCc2nc(C(=O)N3CCC(c4ccccc4)C3)cn2C1 (centres unmarked) [Example 316] | < 10000 | 1000 to 3000 |
| COc1ccc(CCC2CCc3nc(C(=O)N4CCC(c5ccccc5)C4)cn3C2)cn1 (centres unmarked) [Example 317] | < 10000 | ≥ 3000 |
| O=C(c1cn2c(n1)CCC(C1CCC(F)(F)CC1)C2)N1CCC1Cc1ccccc1 (centres unmarked) [Example 318] | < 10000 | ≥ 3000 |
| O=C(N[C@H]1COc2ccccc2C1)c1cn2c(n1)CCC(OCCOC(F)(F)F)C2 (some centres unmarked) [Example 321] | < 10000 | ≥ 3000 |
| O=C(NCCc1cccc(C(F)(F)F)c1)c1cn2c(n1)CNC(c1cccc(C(F)(F)F)n1)C2 (centres unmarked) [Example 324] | < 10000 | ≥ 3000 |
| CN1Cc2nc(C(=O)NCCc3cccc(OCC(F)(F)F)c3)cn2CC1c1ccc(C(F)(F)F)cc1 (centres unmarked) [Example 325] | < 1000 | ≥ 3000 |
| CN1Cc2nc(C(=O)NCCc3cccc(C(F)(F)F)c3)cn2CC1c1cccnc1C(F)(F)F (centres unmarked) [Example 326] | < 10000 | ≥ 3000 |
| CN1Cc2nc(C(=O)NCCc3cccc(OCC4CCOCC4)c3)cn2CC1c1ccccc1 (centres unmarked) [Example 327] | < 10000 | ≥ 3000 |
| CC(C)(C)CCC1Cn2cc(C(=O)N[C@H]3COc4ccccc4C3)nc2CN1 (some centres unmarked) [Example 328] | < 10000 | 1000 to 3000 |
| CN1Cc2nc(C(=O)NCC(F)(F)c3cccc(C(F)(F)F)c3)cn2CC1c1ccccc1 (centres unmarked) [Example 331] | < 10000 | 1000 to 3000 |
| CN(CCc1cccc(C(F)(F)F)c1)C(=O)c1cn2c(n1)CN(C)C(c1ccccc1)C2 (centres unmarked) [Example 332] | < 10000 | ≥ 3000 |
| CN1Cc2nc(C(=O)NCC(F)c3cccc(C(F)(F)F)c3)cn2CC1c1cccc(C(F)(F)F)n1 (centres unmarked) [Example 333] | < 10000 | ≥ 3000 |
| CN1Cc2nc(C(=O)NC3COc4cccc(C(F)(F)F)c4C3)cn2CC1c1ccccc1 (centres unmarked) [Example 334] | < 10000 | 1000 to 3000 |
| O=C(c1cn2c(n1)CNC(c1cccc(OC(F)(F)F)c1)C2)N1CC[C@H](Oc2cccc(C(F)F)n2)C1 (some centres unmarked) [Example 336] | < 10000 | 1000 to 3000 |
| O=C(c1cn2c(n1)CNC(c1cccc(OC(F)(F)F)c1)C2)N1CCOC(c2cccc(C(F)(F)F)c2)C1 (centres unmarked) [Example 337] | < 10000 | ≥ 3000 |
| O=C(N[C@H]1COc2ccccc2C1)c1nc2n(c1-c1ccccc1)CCN(CC(F)(F)F)C2 [Example 338] | < 10000 | ≥ 3000 |

| Structure (SMILES) | IC50 (human Nav1.7) [nM] | IC50 (human Nav1.5) [nM] |
| --- | --- | --- |
| O=C(N[C@H]1COc2ccccc2C1)c1cn2c(n1)COC(c1ccccc1)C2 (some centres unmarked) [Example 340] | < 10000 | ≥ 3000 |
| O=C(N[C@H]1COc2ccc(CC(F)(F)F)cc2C1)c1nc2n(c1-c1ccccn1)CCOC2 [Example 343] | < 1000 | 1000 to 3000 |
| Cn1ccc(-c2c(C(=O)N[C@H]3COc4ccc(C(F)(F)F)cc4C3)nc3n2CCOC3)n1 [Example 345] | < 1000 | 1000 to 3000 |
| O=C(N[C@H]1COc2ccccc2C1)c1cc2n(n1)CCC(c1ccccc1)O2 (some centres unmarked) [Example 349] | < 1000 | 1000 to 3000 |
| O=C(c1cc2n(n1)CCC(c1ccccc1)O2)N1CCC(c2cccc(C(F)(F)F)c2)C1 (centres unmarked) [Example 350] | < 10000 | ≥ 3000 |
| COc1cccc2c1CC(NC(=O)c1cc3n(n1)CCC(c1ccccc1)O3)CO2 (centres unmarked) [Example 351] | < 1000 | ≥ 3000 |
| O=C(NC1COc2cccc(Br)c2C1)c1cc2n(n1)CCC(c1ccccc1)O2 (centres unmarked) [Example 353] | < 10000 | ≥ 3000 |
| O=C(NC1COc2cccc(F)c2C1)c1cc2n(n1)CCC(c1ccccc1)O2 (centres unmarked) [Example 356] | < 1000 | ≥ 3000 |
| O=C(N[C@H]1COc2ccc(-c3cncnc3)cc2C1)c1cc2n(n1)CCC(c1ccccc1F)O2 (some centres unmarked) [Example 357] | < 1000 | ≥ 3000 |
| O=C(N[C@H]1COc2ccc(Cl)cc2C1)c1cc2n(n1)CCC(c1ccnc(C(F)(F)F)c1)O2 (some centres unmarked) [Example 362] | < 10000 | ≥ 3000 |
| N#Cc1ccc2c(c1)C[C@@H](NC(=O)c1cc3n(n1)CCC(c1c(F)cccc1F)O3)CO2 (some centres unmarked) [Example 366] | < 1000 | 1000 to 3000 |
| N#Cc1ccc2c(c1)C[C@@H](NC(=O)c1cc3n(n1)CCC(C#CC(F)(F)F)O3)CO2 (some centres unmarked) [Example 386] | < 1000 | ≥ 3000 |
| COC(C)(C)CCc1ccc2c(c1)C[C@@H](NC(=O)c1cc3n(n1)CCC(C(F)(F)F)O3)CO2 (some centres unmarked) [Example 400] | < 1000 | ≥ 3000 |
| O=C(N[C@H]1COc2ccc(CCOC(F)(F)F)cc2C1)c1cc2n(n1)CC(C(F)(F)F)O2 (some centres unmarked) [Example 447] | < 1000 | ≥ 3000 |
| O=C(N[C@H]1COc2ccc(Cl)cc2C1)c1cc2n(n1)CC(CNCC(F)(F)F)O2 (some centres unmarked) [Example 448] | < 1000 | 1000 to 3000 |
